Like-named read-outs stand apart in the source and are kept apart here.
Experiments:
[1] = Table S1; ref PubChem; cited from earlier work
[2] = O-ring loading rate constant, larger O-rings; ref Smith et al. 2010 [24]; cited from earlier work
[3] = Loading kinetics of silicone micro-O-rings from methanol PAH solution (GC-MS/MS); type: physicochemical
[4] = bovine, 24 h
[5] = Recovery over time from exposure to cell culture media without cells (GC-MS/MS); type: physicochemical
[6] = one-phase association fit, micro-O-ring absorption
[7] = O-Rings (loaded in 10 µg/mL PAH solution), one phase association fit of nominal recovery
[8] = O-Rings, one phase association fit
[9] = Solvent Extract, one phase decay fit

What does the source list for c1ccc2c(c1)Cc1ccccc1-2 [Fluorene]?
LogKow (PubChem) [1]: 4.18; Smith et al. 2010 K Value [2]: 1.89; K Value ([3]; loading rate constant, one-phase association (h^-1), 10 µg/mL PAH mix in methanol): 26.7516; Plateau Value ([3]; one-phase association fit of nominal Csilicone (µg/mL per Eq 1), 10 µg/mL PAH mix in methanol): 0.7821; Y0 ([3]; one-phase association fit of nominal Csilicone, 10 µg/mL PAH mix in methanol, 0-24 h): 0; Half-time Value [3, 6]: 0.02591; Span Value [3, 6]: 0.7821; Tau Value [3, 6]: 0.03738; ISTD Resp. Ratio (Raw Data for FMD) ([4]; 0.375 µg/mL): 0.7014; ISTD Resp. Ratio (Raw Data for FMD) ([4]; 10 µg/mL): 0.2015; Y0 ([5]; MAF (400 ng/mL each PAH), one phase decay fit of nominal recovery): 397.4; Plateau ([5]; MAF (400 ng/mL each PAH), one phase decay fit of nominal recovery (text: ng/mL)): 50.15; K ([5]; MAF, one phase decay fit): 0.7944; Span ([5]; MAF, one phase decay fit): 347.3; Tau ([5]; MAF, one phase decay fit): 1.259; Plateau [5, 7]: 2.925; Y0 [5, 7]: -0.4812; Half-time [5, 8]: 0.4551; Span [5, 8]: 3.406; Tau [5, 8]: 0.6566; K ([5]; O-Rings, one phase association fit (desorption into media)): 1.523; Y0 ([5]; Solvent Extract (DMSO, 15 ng/mL each PAH), one phase decay fit of nominal recovery): 14.61; Plateau ([5]; Solvent Extract (DMSO, 15 ng/mL each PAH), one phase decay fit of nominal recovery (text: ng/mL)): 3.728; K [5, 9]: 0.435; Span [5, 9]: 10.88; Tau [5, 9]: 2.299

Source: PMC9866728, “Dosing Methods to Enable Cell-Based In Vitro Testing of Complex Substances: A Case Study with a PAH Mixture” (Toxics, 2022)
